Where “and” joins values, the source holds several entries; their conditions need not be identical. Equal entries are not always repeated. Blank lines part the entries; values can stand above or below the compound they belong to.
Tested on: 883617-216-R-J1-PDC complex spheroid viability
Assay: Anticancer human tumor 883617-216-R-J1-PDC patient-derived bladder carcinoma cell line growth inhibition
Conditions: for viability, T/C: stronger effect = lower value
Method in brief: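 Drug combinations with the LSD1 inhibitor iadademstat tested on tumor cells co-cultured as spheroids with endothelial cells and mesenchymal stem cells. Concentrations descended in half-log increments from clinical Cmax or 10 microM.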

[1] = curve of first compound, second compound 0.1 µM
[2] = curve of first compound, second compound 0.316 µM
[3] = curve of first compound, second compound 1 µM
[4] = curve of first compound, second compound 3.16 µM
[5] = curve of first compound, second compound 10 µM
[6] = second compound 0.1 µM, first compound 0.0316 µM
[7] = second compound 0.1 µM, first compound 0.1 µM
[8] = second compound 0.1 µM, first compound 0.316 µM
[9] = second compound 0.1 µM, first compound 1 µM
[10] = second compound 0.316 µM, first compound 0.0316 µM
[11] = second compound 0.316 µM, first compound 0.1 µM
[12] = second compound 0.316 µM, first compound 0.316 µM
[13] = second compound 0.316 µM, first compound 1 µM
[14] = second compound 1 µM, first compound 0.0316 µM
[15] = second compound 1 µM, first compound 0.1 µM
[16] = second compound 1 µM, first compound 0.316 µM
[17] = second compound 1 µM, first compound 1 µM
[18] = second compound 3.16 µM, first compound 0.0316 µM
[19] = second compound 3.16 µM, first compound 0.1 µM
[20] = second compound 3.16 µM, first compound 0.316 µM
[21] = second compound 3.16 µM, first compound 1 µM
[22] = second compound 10 µM, first compound 0.0316 µM
[23] = second compound 10 µM, first compound 0.1 µM
[24] = second compound 10 µM, first compound 0.316 µM
[25] = second compound 10 µM, first compound 1 µM
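Also: exposure lasted seven days after three days of spheroid growth.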
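For viability, T/C in this document: 100% = DMSO vehicle control luminescence.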

SMILES: Nc1ccccc1NC(=O)c1ccc(CNC(=O)OCc2cccnc2)cc1 + NC1CCC(NC2CC2c2ccccc2)CC1
- IC50 [1]: 206 nM
- IC50 [2]: 205 nM
- IC50 [3]: 233 nM
- IC50 [4]: 216 nM
- IC50 [5]: 235 nM
- viability, T/C (second compound 0.1 µM, first compound 0.00949 µM): 115%
- viability, T/C (second compound 0.1 µM, first compound 0.03 µM): 89.3%
- viability, T/C (second compound 0.1 µM, first compound 0.0949 µM): 73.5%
- viability, T/C (second compound 0.1 µM, first compound 0.3 µM): 39.5%
- viability, T/C (second compound 0.1 µM, first compound 0.949 µM): 15.8%
- viability, T/C (second compound 0.1 µM, first compound 3 µM): 0.37%
- viability, T/C (second compound 0.316 µM, first compound 0.00949 µM): 112%
- viability, T/C (second compound 0.316 µM, first compound 0.03 µM): 96.2%
- viability, T/C (second compound 0.316 µM, first compound 0.0949 µM): 74.1%
- viability, T/C (second compound 0.316 µM, first compound 0.3 µM): 36.5%
- viability, T/C (second compound 0.316 µM, first compound 0.949 µM): 16.6%
- viability, T/C (second compound 0.316 µM, first compound 3 µM): 0.73%
- viability, T/C (second compound 1 µM, first compound 0.00949 µM): 104%
- viability, T/C (second compound 1 µM, first compound 0.03 µM): 90.2%
- viability, T/C (second compound 1 µM, first compound 0.0949 µM): 76.5%
- viability, T/C (second compound 1 µM, first compound 0.3 µM): 41.4%
- viability, T/C (second compound 1 µM, first compound 0.949 µM): 17.5%
- viability, T/C (second compound 1 µM, first compound 3 µM): 1.37%
- viability, T/C (second compound 3.16 µM, first compound 0.00949 µM): 102%
- viability, T/C (second compound 3.16 µM, first compound 0.03 µM): 103%
- viability, T/C (second compound 3.16 µM, first compound 0.0949 µM): 66.6%
- viability, T/C (second compound 3.16 µM, first compound 0.3 µM): 40.4%
- viability, T/C (second compound 3.16 µM, first compound 0.949 µM): 21.5%
- viability, T/C (second compound 3.16 µM, first compound 3 µM): 1.18%
- viability, T/C (second compound 10 µM, first compound 0.00949 µM): 106%
- viability, T/C (second compound 10 µM, first compound 0.03 µM): 88%
- viability, T/C (second compound 10 µM, first compound 0.0949 µM): 66.5%
- viability, T/C (second compound 10 µM, first compound 0.3 µM): 45.9%
- viability, T/C (second compound 10 µM, first compound 0.949 µM): 23.6%
- viability, T/C (second compound 10 µM, first compound 3 µM): 0.93%

SMILES: Nc1ncn(C2CC(O)C(CO)O2)c(=O)n1 (centres undefined) + NC1CC1c1ccc(-c2cccc(O)c2)cc1
- IC50 [1]: > 1000 nM
- IC50 [2]: > 1000 nM
- IC50 [3]: > 1000 nM
- IC50 [4]: > 1000 nM
- IC50 [5]: > 1000 nM
- viability, T/C (second compound 0.1 µM, first compound 0.00316 µM): 104%
- viability, T/C (second compound 0.1 µM, first compound 0.01 µM): 101%
- viability, T/C [6]: 87.3%
- viability, T/C [7]: 75.2%
- viability, T/C [8]: 64.7%
- viability, T/C [9]: 56.8%
- viability, T/C (second compound 0.316 µM, first compound 0.00316 µM): 110%
- viability, T/C (second compound 0.316 µM, first compound 0.01 µM): 108%
- viability, T/C [10]: 87.5%
- viability, T/C [11]: 76.5%
- viability, T/C [12]: 67.7%
- viability, T/C [13]: 65.1%
- viability, T/C (second compound 1 µM, first compound 0.00316 µM): 110%
- viability, T/C (second compound 1 µM, first compound 0.01 µM): 122%
- viability, T/C [14]: 96.8%
- viability, T/C [15]: 83%
- viability, T/C [16]: 65.9%
- viability, T/C [17]: 56.1%
- viability, T/C (second compound 3.16 µM, first compound 0.00316 µM): 107%
- viability, T/C (second compound 3.16 µM, first compound 0.01 µM): 114%
- viability, T/C [18]: 92.9%
- viability, T/C [19]: 74.8%
- viability, T/C [20]: 60.5%
- viability, T/C [21]: 51.8%
- viability, T/C (second compound 10 µM, first compound 0.00316 µM): 107%
- viability, T/C (second compound 10 µM, first compound 0.01 µM): 86.5%
- viability, T/C [22]: 74%
- viability, T/C [23]: 64.5%
- viability, T/C [24]: 61.7%
- viability, T/C [25]: 52.1%

- IC50 (curve of compound): 1.9 nM and 0.872 nM
SMILES: CC(C)CC(NC(=O)C(Cc1ccccc1)NC(=O)c1cnccn1)B(O)O (centres undefined)
- viability, T/C (compound 0.000316 µM): 103% and 98.5%
- viability, T/C (compound 0.001 µM): 95.8% and 43.5%
- viability, T/C (compound 0.00316 µM): 13.8% and 0.88%
- viability, T/C (compound 0.01 µM): 1.11% and 0.16%
- viability, T/C (compound 0.0316 µM): 1.27% and 0.13%
- viability, T/C (compound 0.1 µM): 0.62% and 0.21%

- IC50 (compound alone, run of 12/07/2021): > 10000 nM
SMILES: NC1CC1c1ccc(-c2cccc(O)c2)cc1 (centres undefined)
- viability, T/C (compound 0.1 µM): 107%

SMILES: O=C(c1cc(Cc2n[nH]c(=O)c3ccccc23)ccc1F)N1CCN(C(=O)C2CC2)CC1 + NC1CC1c1ccc(-c2cccc(O)c2)cc1
- IC50 [1]: 855 nM
- IC50 [2]: 784 nM
- IC50 [3]: 1070 nM
- IC50 [4]: 526 nM
- IC50 [5]: 160 nM
- viability, T/C [6]: 94.1%
- viability, T/C [7]: 86.6%
- viability, T/C [8]: 72.5%
- viability, T/C [9]: 45.8%
- viability, T/C (second compound 0.1 µM, first compound 3.16 µM): 37.5%
- viability, T/C (second compound 0.1 µM, first compound 10 µM): 36.4%
- viability, T/C [10]: 96%
- viability, T/C [11]: 87.7%
- viability, T/C [12]: 65.5%
- viability, T/C [13]: 46.5%
- viability, T/C (second compound 0.316 µM, first compound 3.16 µM): 34.9%
- viability, T/C (second compound 0.316 µM, first compound 10 µM): 31.9%
- viability, T/C [14]: 91.3%
- viability, T/C [15]: 71.8%
- viability, T/C [16]: 60.8%
- viability, T/C [17]: 59.5%
- viability, T/C (second compound 1 µM, first compound 3.16 µM): 33.5%
- viability, T/C (second compound 1 µM, first compound 10 µM): 26.9%
- viability, T/C [18]: 93.3%
- viability, T/C [19]: 84.1%
- viability, T/C [20]: 53.7%
- viability, T/C [21]: 42.1%
- viability, T/C (second compound 3.16 µM, first compound 3.16 µM): 35.9%
- viability, T/C (second compound 3.16 µM, first compound 10 µM): 25.5%
- viability, T/C [22]: 58%
- viability, T/C [23]: 53.4%
- viability, T/C [24]: 47.1%
- viability, T/C [25]: 38%
- viability, T/C (second compound 10 µM, first compound 3.16 µM): 31.1%
- viability, T/C (second compound 10 µM, first compound 10 µM): 26.5%
